From US20030083469A1, “Allosteric control of nuclear hormone receptors” (The Salk Institute for Biological Studies, priority 1995, published 2003)

Legend:
GAL-T3R + RXR LBD = biological target: T1, GAL-T3R + RXR LBD (Homo sapiens, UniProt P19793); test: Transient transfection of GAL-T3R chimera with RXR LBD; format: cell-based; conditions: 100 nM LG69
T1 construct: or the human RXRα LBD (Glu 203 -Thr 462); expressed in transfected cells; host or cells: CV-1
T1 sequence (P19793 203-462): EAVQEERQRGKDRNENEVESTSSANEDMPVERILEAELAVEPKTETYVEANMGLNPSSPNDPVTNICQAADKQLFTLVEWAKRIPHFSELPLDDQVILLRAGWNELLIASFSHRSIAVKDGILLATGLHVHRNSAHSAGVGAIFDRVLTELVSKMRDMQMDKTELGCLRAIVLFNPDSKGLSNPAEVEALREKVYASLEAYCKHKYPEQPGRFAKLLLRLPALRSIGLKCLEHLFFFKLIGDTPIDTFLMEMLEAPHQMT
T1 sequence (P10828 178-461 partner): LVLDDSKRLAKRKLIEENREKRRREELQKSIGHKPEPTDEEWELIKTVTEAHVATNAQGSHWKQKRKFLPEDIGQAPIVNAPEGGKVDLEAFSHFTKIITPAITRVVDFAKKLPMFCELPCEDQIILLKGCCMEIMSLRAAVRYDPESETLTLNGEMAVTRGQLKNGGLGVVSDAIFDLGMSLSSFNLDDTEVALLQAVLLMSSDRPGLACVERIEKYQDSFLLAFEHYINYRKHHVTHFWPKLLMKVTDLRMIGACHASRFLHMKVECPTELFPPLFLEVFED
Description: (§1) CV-1 cells were grown in Dulbecco's Modified Eagle's medium supplemented with 10% resin-charcoal stripped (Samuels et al., Endocrinology 105:80-85 (1979)) fetal bovine serum, 50 U/ml penicillin G and 50 μg/ml streptomycin sulfate (DMEM-FBS) at 37° C. in 5% CO2. One day prior to transfection, cells were plated to 50-80% confluence using phenol-red free DMEM-FBS. Cells were transfected by lipofection using N-{2-(2,3)-dioleoyloxy)propyl-N,N,N-trimethyl ammonium methyl sulfate} according to the manufacturer's instructions (DOTAP, Boehringer Mannheim). […] Cells were harvested and assayed for luciferase and β-galactosidase activity. All points were performed in triplicate in each experiment and varied by less than 10%. Each experiment was repeated three or more times with similar results.
(§2) Since RXR serves as a silent partner in the T3R and RAR pathways, it was next investigated whether RXR could serve as an active component in other complexes. To search for such complexes, the LBD of a number of nuclear receptors were fused to the GAL4 DBD, and tested to determine whether the RXR LBD could confer LG69 responsiveness upon these GAL-LBD chimeras. […] Normalized luciferase activity was determined and plotted as fold-activation relative to untreated cells.

[1] = biological target: T2, GAL chimera containing the LBD of VDR + RXR LBD (Homo sapiens, UniProt P19793); test: Transient transfection of GAL-VDR LBD chimera with RXR LBD; format: cell-based; conditions: 100 nM LG69
T2 construct: or the human RXRα LBD (Glu 203 -Thr 462); expressed in transfected cells; host or cells: CV-1
T2 sequence (P19793 203-462): T1 sequence (P19793 203-462)
Description: as §1, §2

RXR-T3R heterodimer = biological target: T3, RXR-T3R heterodimer (Homo sapiens, UniProt P19793); test: Ligand binding assay with RXR-T3R heterodimer; parameters: species or system human GST-hRXRα, chicken T3Rα1
T3 construct: made in house
T3 sequence (P19793 1-462): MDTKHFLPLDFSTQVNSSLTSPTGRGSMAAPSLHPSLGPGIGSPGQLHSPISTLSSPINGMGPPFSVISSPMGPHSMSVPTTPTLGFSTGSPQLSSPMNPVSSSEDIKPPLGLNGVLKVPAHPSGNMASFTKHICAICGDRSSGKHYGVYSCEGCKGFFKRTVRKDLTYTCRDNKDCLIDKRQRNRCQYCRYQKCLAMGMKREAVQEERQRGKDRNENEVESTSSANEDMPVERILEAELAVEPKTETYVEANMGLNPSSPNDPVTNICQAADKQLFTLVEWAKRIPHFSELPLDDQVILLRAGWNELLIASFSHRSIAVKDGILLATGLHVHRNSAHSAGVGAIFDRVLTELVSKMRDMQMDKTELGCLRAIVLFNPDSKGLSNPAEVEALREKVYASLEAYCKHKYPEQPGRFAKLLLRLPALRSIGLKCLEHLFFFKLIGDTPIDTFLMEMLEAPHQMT
T3 sequence (P04625 1-408 partner): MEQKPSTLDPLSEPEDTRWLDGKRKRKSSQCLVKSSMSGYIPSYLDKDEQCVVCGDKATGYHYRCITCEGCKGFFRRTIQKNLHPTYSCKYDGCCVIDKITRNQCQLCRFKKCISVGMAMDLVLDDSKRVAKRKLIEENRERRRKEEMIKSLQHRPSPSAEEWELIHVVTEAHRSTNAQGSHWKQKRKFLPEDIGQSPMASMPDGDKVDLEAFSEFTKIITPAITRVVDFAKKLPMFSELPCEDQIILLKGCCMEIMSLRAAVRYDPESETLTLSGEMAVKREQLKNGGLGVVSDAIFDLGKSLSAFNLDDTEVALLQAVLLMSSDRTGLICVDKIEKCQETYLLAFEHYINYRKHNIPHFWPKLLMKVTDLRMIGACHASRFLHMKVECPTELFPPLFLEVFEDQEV

Nurrl+RXR LBD = biological target: T4, Nurrl+RXR LBD (Homo sapiens, UniProt P19793); test: Transient transfection of Nurrl with RXR LBD on NBRE x3 reporter; format: cell-based, mouse Nurrl, human RXRα; conditions: NBRE×3; 100 nM LG69
T4 construct: or the human RXRα LBD (Glu 203 -Thr 462); expressed in transfected cells; host or cells: CV-1
T4 sequence (Q06219 whole entry partner, one chain of several, the tested form may be a part): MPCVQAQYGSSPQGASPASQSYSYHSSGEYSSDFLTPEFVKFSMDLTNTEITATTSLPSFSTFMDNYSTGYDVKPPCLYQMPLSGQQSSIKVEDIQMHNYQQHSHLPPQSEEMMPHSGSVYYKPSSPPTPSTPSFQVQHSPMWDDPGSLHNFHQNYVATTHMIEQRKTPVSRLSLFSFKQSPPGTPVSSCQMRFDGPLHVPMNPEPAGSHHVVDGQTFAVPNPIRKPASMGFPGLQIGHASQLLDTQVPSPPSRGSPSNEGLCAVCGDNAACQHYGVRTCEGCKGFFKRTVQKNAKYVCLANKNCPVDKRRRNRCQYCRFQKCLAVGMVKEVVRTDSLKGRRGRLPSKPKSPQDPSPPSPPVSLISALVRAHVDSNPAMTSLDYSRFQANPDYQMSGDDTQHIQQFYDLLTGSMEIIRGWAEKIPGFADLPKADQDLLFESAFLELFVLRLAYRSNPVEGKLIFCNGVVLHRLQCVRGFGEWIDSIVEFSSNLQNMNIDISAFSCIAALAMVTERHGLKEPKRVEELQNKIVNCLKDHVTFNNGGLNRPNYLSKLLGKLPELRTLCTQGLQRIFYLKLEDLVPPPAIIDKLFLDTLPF
Description: as §1
This prompted an investigation of the question of whether the RXR DBD is required for activation through the Nurrl pathway. Thus, CV-1 cells were transfected with TK-LUC reporters (300 ng/10^5 cells), CMX-βgal (500 ng/10^5 cells) and the indicated CMX-receptor construct (20 ng/10^5 cells; see FIG. 7D) with or without CMX-RXR-LBD (100 ng/10^5 cells) . […] Normalized luciferase activity was determined and plotted as percent of maximal fold-activation where 100% is defined as the fold activation by T3R, RAR, VDR, the RXR LBD, or Nurrl+RXR LBD. […]

`CC=C(c1ccc(C(=O)O)cc1)c1cc2c(cc1C)C(C)(C)CCC2(C)C` [LG69, 4-{1-(3,5,5,8,8-pentamethyl-5,6,7,8-tetrahydro-2-napthalenyl)-1-propenyl}benzoic acid] was tested, and the LG69 responsiveness (GAL-T3R + RXR LBD) was “not seen”, the LG69 inducibility [1] was “not observed” and the “change in [3H] LG69 binding” value (RXR-T3R heterodimer; T3R with 1 μM T3 added) was “strongly diminished”. For the same compound, the “change in [3H] LG69 binding” value (RXR-T3R heterodimer; unliganded T3R) was “modest reduction” and the “LG69 responsiveness conferred upon Nurrl by the RXR LBD” value (Nurrl+RXR LBD) was “strong”.
